Test results reported in US20240109863A1, “2-PYRIDONE DERIVATIVE, AND PREPARATION METHOD THEREFOR AND PHARMACEUTICAL APPLICATION THEREOF” (KPC PHARMACEUTICALS, INC, priority 2020, published 2024).

Experiments:
[1] = target: T1, THRβ (Homo sapiens, UniProt P10828); experiment: THRβ binding assay (time-resolved FRET coactivator peptide recruitment); assay type: biochemical; conditions: THRβ-LBD/RXRα, SRC2-2 coactivator peptide recruitment, 4 hours at room temperature
T1 construct: RXRα and THRβ-LBD Eu-anti-GST antibody with GST tag
Experimental: Experimental methods: In vitro analysis of the agonistic effect of compounds on THRβ was performed using time-resolved fluorescence resonance energy transfer coactivator peptide recruitment assays. The assay used biotin-SRC2-2 coactivator peptide, streptavidin-d2, RXRα and THRβ-LBD Eu-anti-GST antibody with GST tag. Eu-anti-GST antibody indirectly labeled THRβ-LBD by binding to the GST tag. Streptavidin-d2 indirectly labeled the SRC2-2 coactivator peptide by binding to the biotin tag. In the presence of RXRα, THRβ-LBD can form heterodimer THRβ-LBD/RXRα with it. […] According to the effect of different concentrations of the compound on the activity of THRβ, the agonistic ability of the compound can be evaluated.
The detailed procedure is as follows: • a. 100× reference compound or compound was prepared with DMSO, and equally diluted by 1:3. • b. 100× gradiently diluted reference compound or compound was diluted with 1× reaction buffer to 4×, which was then added to an assay plate. • c. A mixed solution of 4× THRβ-LBD and 4× RXRα was prepared with 1× reaction buffer, and added to the assay plate. • d. A mixed solution of 2× biotin-SRC2-2, 2× Eu-anti-GST, and 2× streptavidin-d2 was prepared with 1× reaction buffer, and added to the assay plate. • e. The assay plate was centrifuged at 1000 rpm for 1 min, and incubated at room temperature in the dark for 4 hours. • f.

[2] = target: T2, THRα (Homo sapiens, UniProt P10827); experiment: THRα binding assay (as the THRβ assay, THRβ replaced with THRα); assay type: biochemical; conditions: for EC50: THRα in place of THRβ; for THRα/β selectivity (fold): ratio of THRα EC50 to THRβ EC50
T2 construct: GST

[3] = In vivo pharmacokinetics in mice; conditions: male ICR mice, intragastric, single dose 3 mg/Kg; for Area of curve / half-life: plasma; for half-life: mouse, po
Experimental: Mice were used as test animals, and intragastrically administered with the compounds of Example 1 and Example 46, and then the drug concentrations in plasma at different time points were measured. The pharmacokinetic performance of the compounds of the present invention in mice was studied, and the drug metabolism characteristics were evaluated. In the example, healthy adult male ICR mice with similar body weight were selected, and orally administered with drugs once at a dose of 3.0 mg/kg. Whole blood was collected before the administration and 1 h, 2 h, 4 h, 6 h, 8 h, 12 h, 24 h and 48 h after the administration, respectively. LC/MS/MS method was established to determine the concentrations of prototype drugs in plasma samples. The main pharmacokinetic parameters were calculated using WinNonlin 6.3 NCA model.
Experimental drug: the compounds obtained in Example 1 and Example 46.
Experimental animals: 9 healthy adult male ICR mice, equally divided into 3 groups, 3 mice in each group, purchased from Shanghai Xipu'er-Bikai Experimental Animal Co., Ltd., with an animal certificate number: SOCK (Shanghai) 2018-0006 2018 0006 010467.
Preparation of drug: A certain amount of the compounds of Example 1 and Example 46 were accurately weighed, put into a 15 ml sample tube, wetted by 5 μL of Tween 80, and then added with 5.2 mL of 2% hydroxypropyl methylcellulose (HPMC) solution. The mixture was sonicated and mixed by vortex to obtain a homogeneous suspension. The drugs were freshly prepared just before use.
Administration: After fasting overnight, ICR mice were intragastrically administered with the drugs at a dose of 3.0 mg/kg.
Operation: The mice were intragastrically administered with the compounds of Example 1 and Example 46. Whole blood was collected before the administration and 1 h, 2 h, 4 h, 6 h, 8 h, 12 h, 24 h and 48 h after the administration, then anticoagulated with heparin sodium, and centrifuged at 4° C. for 5 min. Plasma was separated, and stored at −80° C. for determination.
Determination of the contents of the compounds to be tested in the mice plasma after intragastric administration of drugs: 12.5 μL of the mice plasma to be tested at each time point after the administration of the compounds of Example 1 and Example 46 were taken respectively, mixed in pairs, and added with 100 μL of the internal standard solution and 125 μL of methanol. The mixture was mixed by vortex for 2 min, and centrifuged at 13000 rpm for 10 min at 4° C. The supernatant was taken for LC-MS/MS analysis.

[4] = preclinical toxicology and data of phase I; cited from earlier work
[5] = data of phase II, cited from earlier work

T2 sequence (P10827 1-410 isoform P10827-2, other chains not shown): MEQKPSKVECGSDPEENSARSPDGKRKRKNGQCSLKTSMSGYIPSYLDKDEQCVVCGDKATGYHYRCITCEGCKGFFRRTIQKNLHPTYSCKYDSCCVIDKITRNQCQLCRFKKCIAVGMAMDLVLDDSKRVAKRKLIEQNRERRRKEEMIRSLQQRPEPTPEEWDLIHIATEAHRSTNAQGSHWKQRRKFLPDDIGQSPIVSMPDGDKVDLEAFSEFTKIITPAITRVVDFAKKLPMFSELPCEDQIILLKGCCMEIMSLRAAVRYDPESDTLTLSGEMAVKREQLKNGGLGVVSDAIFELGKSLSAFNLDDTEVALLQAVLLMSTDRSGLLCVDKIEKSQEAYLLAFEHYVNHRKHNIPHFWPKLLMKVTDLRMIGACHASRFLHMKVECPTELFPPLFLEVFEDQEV
T2 sequence (P19793 whole entry partner, other chains not shown): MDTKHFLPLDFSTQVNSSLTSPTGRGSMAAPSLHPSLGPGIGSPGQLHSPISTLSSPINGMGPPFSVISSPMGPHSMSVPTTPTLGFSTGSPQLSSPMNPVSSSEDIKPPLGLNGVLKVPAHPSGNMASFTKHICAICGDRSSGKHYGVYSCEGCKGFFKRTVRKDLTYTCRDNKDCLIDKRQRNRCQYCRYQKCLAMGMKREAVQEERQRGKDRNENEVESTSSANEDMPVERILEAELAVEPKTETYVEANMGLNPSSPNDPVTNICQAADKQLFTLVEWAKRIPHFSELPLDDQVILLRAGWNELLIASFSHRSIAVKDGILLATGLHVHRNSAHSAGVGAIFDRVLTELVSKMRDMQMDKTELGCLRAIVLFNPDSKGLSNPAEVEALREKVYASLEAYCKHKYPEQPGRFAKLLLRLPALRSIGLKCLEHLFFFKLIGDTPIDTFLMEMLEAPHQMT
T1 sequence (P10828 217-461 limits assumed, other chains not shown): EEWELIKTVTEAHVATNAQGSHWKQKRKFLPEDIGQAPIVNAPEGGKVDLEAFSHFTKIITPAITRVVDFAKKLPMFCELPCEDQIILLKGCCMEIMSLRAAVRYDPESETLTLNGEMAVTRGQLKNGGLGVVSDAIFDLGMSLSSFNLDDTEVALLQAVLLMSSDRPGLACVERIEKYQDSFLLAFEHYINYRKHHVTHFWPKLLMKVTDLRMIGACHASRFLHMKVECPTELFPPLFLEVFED
T1 sequence (P19793 whole entry partner, other chains not shown, the tested form may be a part): as the sequence (P19793 whole entry partner, other chains not shown) above

Row | EC50 [1] [nM] | EC50 [2] [nM] | THRα/β selectivity (fold) [2] [fold] | Peak plasma concentration [3] [ng/mL] | Area of curve [3] [ng·h/mL] | half-life [3] [h] | SMILES | LDL cholesterol, triglycerides and lipoproteins [4] | severe cases ([5]; not related to treatment) | adverse effects (AEs) mild [5] [%] | adverse effects (AEs) moderate [5] [%]
1 | 102 | 930 | 9.1 | 92.37 | 1774.03 | 11.2 | CC1CCc2c(Oc3c(Cl)cc(-n4nc(C#N)c(=O)[nH]c4=O)cc3Cl)ccc(=O)n21 (stereo not shown) [Example 46, 2-(3,5-dichloro-4-((3-methyl-5-oxo-1,2,3,5-tetrahydroindoline-8-yl)oxy)phenyl)-3,5-dioxo-2,3,4,5-tetrahydro-1,2,4-triazine-6-carbonitrile] |  |  |  | 
2 | 11 | 49 | 4.5 | 54.0 | 535.2 | 5.6 | CC(C)n1cc(Oc2c(Cl)cc(-n3nc(C#N)c(=O)[nH]c3=O)cc2Cl)ccc1=O [Example 1, 2-(3,5-Dichloro-4-((1-isopropyl-6-oxo-1,6-dihydropyridin-3-yl)oxy)phenyl)-3,5-dioxo-2,3,4,5-tetrahydro-1,2,4-triazine-6-carbonitrile] |  |  |  | 
3 |  |  |  |  |  |  | CC(C)c1cc(Oc2c(Cl)cc(-n3nc(C#N)c(=O)[nH]c3=O)cc2Cl)n[nH]c1=O [Control compound 2, MGL-3196] | significantly reduce | 3 | 85 | 15
